Test results as given in patent publication US20100267561A1, “HERBICIDAL PYRIDAZINONE DERIVATIVES” (priority 2007, published 2010).

Experiments:
Type in all cases: in vivo
[1] = test system: Russian thistle (Salsola iberica); assay: Test B pre-/postemergence plant response; conditions: Preemergence
In short: (§1)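 Preemergence and postemergence (plants 2-18 cm, 1- to 4-leaf stage) applications used test chemicals in a non-phytotoxic solvent with surfactant. Plants were held in a greenhouse 13 to 15 days, then rated visually against controls on a 0-100 scale (0 no effect, 100 complete control).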

[2] = test system: catchweed bedstraw (Galium aparine); assay: Test B pre-/postemergence plant response; conditions: Preemergence
In short: as §1

[3] = test system: cocklebur (Xanthium strumarium); assay: Test B pre-/postemergence plant response; conditions: for Cocklebur plant response rating: 8 g ai/ha
In short: as §1

[4] = test system: common (oilseed) sunflower (Helianthus annuus); assay: Test B pre-/postemergence plant response; conditions: Preemergence
In short: as §1

[5] = test system: downy bromegrass (Bromus tectorum); assay: Test B pre-/postemergence plant response; conditions: for Bromegrass, Downy plant response rating: 8 g ai/ha
In short: as §1

[6] = test system: goosegrass (Eleusine indica); assay: Test B pre-/postemergence plant response; conditions: for Goosegrass plant response rating: 8 g ai/ha
In short: as §1

[7] = test system: green foxtail (Setaria viridis); assay: Test B pre-/postemergence plant response; conditions: for Foxtail, Green plant response rating: 8 g ai/ha
In short: as §1

[8] = test system: large crabgrass (Digitaria sanguinalis); assay: Test B pre-/postemergence plant response; conditions: for Crabgrass, Large plant response rating: 8 g ai/ha
In short: as §1

[9] = test system: pigweed (Amaranthus retroflexus); assay: Test B pre-/postemergence plant response; conditions: for Pigweed plant response rating: 8 g ai/ha
In short: as §1

soybean (Glycine max) = assay: Test B pre-/postemergence plant response; conditions: for Soybean plant response rating: 8 g ai/ha
In short: as §1

[10] = test system: velvetleaf (Abutilon theophrasti); assay: Test B pre-/postemergence plant response; conditions: for Velvetleaf plant response rating: 8 g ai/ha
In short: as §1

[11] = test system: wheat (Triticum aestivum); assay: Test B pre-/postemergence plant response; conditions: for Wheat plant response rating: 8 g ai/ha
In short: as §1

[12] = test system: woolly cupgrass (Eriochloa villosa); assay: Test B pre-/postemergence plant response; conditions: for Cupgrass, Woolly plant response rating: 8 g ai/ha
In short: as §1

rice (Oryza sativa) = assay: Test B flooded paddy test plant response
In short: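 Paddy-water application to 2-leaf plants in pots held under 3 cm of flooding; response is a 0–100 visual control rating against controls after 13 to 15 days, and a dash marks a missing result.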

[13] = 16 g ai/ha, scale 0 to 100 (0 no effect, 100 complete control)
[14] = 31 g ai/ha, 0 to 100 scale, 0 no effect, 100 complete control
[15] = Postemergence, 16 g ai/ha, scale 0 to 100
[16] = Postemergence, 31 g ai/ha, scale 0 to 100, 0 no effect, 100 complete control
[17] = Postemergence, 62 g ai/ha, scale 0 to 100, 0 no effect, 100 complete control
[18] = Preemergence, 16 g ai/ha, scale 0 to 100 (0 no effect, 100 complete control)
[19] = Preemergence, 31 g ai/ha, 0 to 100 scale, 0 no effect, 100 complete control
[20] = Preemergence, 62 g ai/ha, scale 0 to 100

Cc1cc(-c2ccc(Cl)cc2)nn1-c1c(OC(=O)CC(C)C)cnn(C)c1=O [Compound 37]
Plant response rating, Russian Thistle [1, 13]: 0 | Plant response rating, Russian Thistle [1, 14]: 0 | Plant response rating, Russian Thistle ([1]; 62 g ai/ha, scale 0 to 100): 90 | Russian Thistle plant response rating ([1]; 8 g ai/ha, scale 0 to 100): 0 | Plant response rating, Galium [2, 13]: 0 | Plant response rating, Galium [2, 14]: 0 | Plant response rating, Galium ([2]; 62 g ai/ha, scale 0 to 100): 0 | Galium plant response rating ([2]; 8 g ai/ha, scale 0 to 100): 0 | Cocklebur plant response rating ([3]; postemergence, 0-100 scale): 0 | Plant response rating, Cocklebur [3, 15]: 0 | Plant response rating, Cocklebur [3, 16]: 0 | Plant response rating, Cocklebur [3, 17]: 0 | Plant response rating, Cocklebur [3, 18]: 0 | Plant response rating, Cocklebur [3, 19]: 0 | Plant response rating, Cocklebur [3, 20]: 0 | Cocklebur plant response rating ([3]; Preemergence, scale 0 to 100): 0 | Plant response rating, Sunflower [4, 13]: 0 | Plant response rating, Sunflower [4, 14]: 0 | Plant response rating, Sunflower ([4]; 62 g ai/ha, scale 0 to 100): 30 | Sunflower plant response rating ([4]; 8 g ai/ha, scale 0 to 100): 0 | Bromegrass, Downy plant response rating ([5]; postemergence, 0-100 scale): 0 | Plant response rating, Bromegrass, Downy [5, 15]: 55 | Plant response rating, Bromegrass, Downy [5, 16]: 55 | Plant response rating, Bromegrass, Downy [5, 17]: 75 | Plant response rating, Bromegrass, Downy [5, 18]: 30 | Plant response rating, Bromegrass, Downy [5, 19]: 60 | Plant response rating, Bromegrass, Downy [5, 20]: 80 | Bromegrass, Downy plant response rating ([5]; Preemergence, scale 0 to 100): 0 | Goosegrass plant response rating ([6]; postemergence, 0-100 scale): 100 | Plant response rating, Goosegrass [6, 15]: 100 | Plant response rating, Goosegrass [6, 16]: 100 | Plant response rating, Goosegrass [6, 17]: 100 | Plant response rating, Goosegrass [6, 18]: 90 | Plant response rating, Goosegrass [6, 19]: 98 | Plant response rating, Goosegrass [6, 20]: 100 | Goosegrass plant response rating ([6]; Preemergence, scale 0 to 100): 75 | Foxtail, Green plant response rating ([7]; postemergence, 0-100 scale): 60 | Plant response rating, Foxtail, Green [7, 15]: 75 | Plant response rating, Foxtail, Green [7, 16]: 80 | Plant response rating, Foxtail, Green [7, 17]: 85 | Plant response rating, Foxtail, Green [7, 18]: 98 | Plant response rating, Foxtail, Green [7, 19]: 100 | Plant response rating, Foxtail, Green [7, 20]: 100 | Foxtail, Green plant response rating ([7]; Preemergence, scale 0 to 100): 40 | Crabgrass, Large plant response rating ([8]; postemergence, 0-100 scale): 70 | Plant response rating, Crabgrass, Large [8, 15]: 70 | Plant response rating, Crabgrass, Large [8, 16]: 85 | Plant response rating, Crabgrass, Large [8, 17]: 100 | Plant response rating, Crabgrass, Large [8, 18]: 98 | Plant response rating, Crabgrass, Large [8, 19]: 100 | Plant response rating, Crabgrass, Large [8, 20]: 100 | Crabgrass, Large plant response rating ([8]; Preemergence, scale 0 to 100): 70 | Pigweed plant response rating ([9]; postemergence, 0-100 scale): 0 | Plant response rating, Pigweed [9, 15]: 0 | Plant response rating, Pigweed [9, 16]: 0 | Plant response rating, Pigweed [9, 17]: 0 | Plant response rating, Pigweed [9, 18]: 0 | Plant response rating, Pigweed [9, 19]: 0 | Plant response rating, Pigweed [9, 20]: 0 | Pigweed plant response rating ([9]; Preemergence, scale 0 to 100): 0 | Soybean plant response rating (soybean (Glycine max); postemergence, 0-100 scale): 0 | Plant response rating, Soybean (soybean (Glycine max); [15]): 0 | Plant response rating, Soybean (soybean (Glycine max); [17]): 0 | Plant response rating, Soybean (soybean (Glycine max); [18]): 0 | Plant response rating, Soybean (soybean (Glycine max); [19]): 0 | Plant response rating, Soybean (soybean (Glycine max); [20]): 0 | Soybean plant response rating (soybean (Glycine max); Preemergence, scale 0 to 100): 0 | Velvetleaf plant response rating ([10]; postemergence, 0-100 scale): 0 | Plant response rating, Velvetleaf [10, 15]: 0 | Plant response rating, Velvetleaf [10, 17]: 0 | Plant response rating, Velvetleaf [10, 18]: 0 | Plant response rating, Velvetleaf [10, 19]: 0 | Plant response rating, Velvetleaf [10, 20]: 0 | Velvetleaf plant response rating ([10]; Preemergence, scale 0 to 100): 0 | Wheat plant response rating ([11]; postemergence, 0-100 scale): 15 | Plant response rating, Wheat [11, 15]: 50 | Plant response rating, Wheat [11, 17]: 95 | Plant response rating, Wheat [11, 18]: 0 | Plant response rating, Wheat [11, 19]: 5 | Plant response rating, Wheat [11, 20]: 70 | Wheat plant response rating ([11]; Preemergence, scale 0 to 100): 0 | Cupgrass, Woolly plant response rating ([12]; postemergence, 0-100 scale): 90 | Plant response rating, Cupgrass, Woolly [12, 15]: 98 | Plant response rating, Cupgrass, Woolly [12, 16]: 100 | Plant response rating, Cupgrass, Woolly [12, 17]: 100 | Plant response rating, Cupgrass, Woolly [12, 18]: 50 | Plant response rating, Cupgrass, Woolly [12, 19]: 50 | Plant response rating, Cupgrass, Woolly [12, 20]: 100 | Cupgrass, Woolly plant response rating ([12]; Preemergence, scale 0 to 100): 50 | Plant response rating, Rice (rice (Oryza sativa); Flood (flooded paddy test), 62 g ai/ha, scale 0 to 100, 0 no effect, 100 complete control): 70 | Plant response rating, Rice (rice (Oryza sativa); Flood (flooded paddy test), 125 g ai/ha, scale 0 to 100, 0 no effect, 100 complete control): 80 | Plant response rating, Rice (rice (Oryza sativa); Flood (flooded paddy test), 250 g ai/ha, scale 0 to 100, 0 no effect, 100 complete control): 90 | Plant response rating, Rice (rice (Oryza sativa); Flood, 31 g ai/ha, scale 0 to 100): 0
